Results reported in article PMC10709440, “High-throughput ligand profile characterization in novel cell lines expressing seven heterologous insect olfactory receptors for the detection of volatile plant biomarkers” (Scientific Reports, 2023).
Like-named read-outs stand apart in the source and are kept apart here.

What was measured:
Drosophila OR85b = target: T1, Drosophila OR85b (Drosophila melanogaster, UniProt Q9VHQ7); assay: Calcium ion fluorescence (GCaMP6) assay, OR85b stable HEK293 cell line; type: cell-based; details: for Average response / OR85b response (VUAA1-normalized) at 1 μM / OR85b response (VUAA1-normalized) at 10 μM / OR85b response (VUAA1-normalized) at 100 μM: OR85b cell line; for Average response: VUAA1-normalized response, mean of biological replicates
T1 construct: expressed in transfected cells
T1 sequence (Q9VHQ7 1-390): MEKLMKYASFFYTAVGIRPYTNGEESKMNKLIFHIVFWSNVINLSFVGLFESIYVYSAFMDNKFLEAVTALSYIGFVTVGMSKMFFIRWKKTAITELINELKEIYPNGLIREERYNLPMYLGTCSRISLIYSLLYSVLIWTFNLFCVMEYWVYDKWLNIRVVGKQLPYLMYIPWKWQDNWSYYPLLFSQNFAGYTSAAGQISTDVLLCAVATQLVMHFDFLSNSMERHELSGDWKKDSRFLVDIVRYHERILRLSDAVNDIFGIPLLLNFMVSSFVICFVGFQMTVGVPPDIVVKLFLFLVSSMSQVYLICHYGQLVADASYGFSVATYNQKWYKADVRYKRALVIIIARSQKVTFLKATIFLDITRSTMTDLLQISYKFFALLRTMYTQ
T1 sequence (Q9VNB5 1-486 partner): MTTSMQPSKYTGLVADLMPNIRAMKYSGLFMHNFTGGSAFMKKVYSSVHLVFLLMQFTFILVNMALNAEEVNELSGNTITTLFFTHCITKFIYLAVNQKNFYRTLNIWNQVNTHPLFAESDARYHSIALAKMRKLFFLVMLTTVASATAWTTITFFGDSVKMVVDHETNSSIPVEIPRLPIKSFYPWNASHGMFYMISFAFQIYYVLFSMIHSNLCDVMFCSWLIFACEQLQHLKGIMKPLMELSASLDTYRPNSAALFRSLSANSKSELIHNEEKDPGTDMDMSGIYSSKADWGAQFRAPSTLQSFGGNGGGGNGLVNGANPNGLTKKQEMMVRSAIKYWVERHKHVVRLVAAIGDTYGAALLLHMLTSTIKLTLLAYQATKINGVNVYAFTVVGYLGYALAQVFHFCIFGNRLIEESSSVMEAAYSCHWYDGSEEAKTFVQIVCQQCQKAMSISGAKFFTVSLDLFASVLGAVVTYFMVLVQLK
In short: (§1)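 Responses are VUAA1-normalized ΔF: each VOC-evoked calcium signal, (FMAX−F0)/F0 over 30 s after injection, divided by the same line's mean 50 µM VUAA1 response. Cells were doxycycline-induced HEK293 with GCaMP6 and the cognate Drosophila OR, in HEPES buffer pH 7.3; ligands tested 0.01–100 μM.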

Drosophila OR98a = target: T2, Drosophila OR98a (Drosophila melanogaster, UniProt Q9VAZ3); assay: Calcium ion fluorescence (GCaMP6) assay, OR98a stable HEK293 cell line; type: cell-based; details: for OR98a response (VUAA1-normalized) at 1 μM / OR98a response (VUAA1-normalized) at 10 μM / OR98a response (VUAA1-normalized) at 100 μM / Average response: OR98a cell line; for Average response: average of biological replicates, fraction of VUAA1 response
T2 construct: expressed in transfected cells
T2 sequence (Q9VAZ3 1-397): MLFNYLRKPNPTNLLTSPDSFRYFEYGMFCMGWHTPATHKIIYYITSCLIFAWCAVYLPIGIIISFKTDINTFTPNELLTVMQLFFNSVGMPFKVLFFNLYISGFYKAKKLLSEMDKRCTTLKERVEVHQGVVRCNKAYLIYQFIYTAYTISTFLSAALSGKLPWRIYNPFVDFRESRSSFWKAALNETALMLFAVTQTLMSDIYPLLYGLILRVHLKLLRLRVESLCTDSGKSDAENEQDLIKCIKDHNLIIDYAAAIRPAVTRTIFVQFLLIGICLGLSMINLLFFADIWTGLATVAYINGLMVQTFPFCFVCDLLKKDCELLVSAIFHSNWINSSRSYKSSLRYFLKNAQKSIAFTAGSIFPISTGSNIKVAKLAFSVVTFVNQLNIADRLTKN
T2 sequence (Q9VNB5 1-486 partner): T1 sequence (Q9VNB5 1-486 partner)
In short: as §1

[1] = HEK293, read-out: OR85b Average response (VUAA1-normalized)
[2] = HEK293, read-out: OR85b response (VUAA1-normalized response)
[3] = concentration 1, normalized fluorescence change, values below 0.05 threshold given as 0
[4] = concentration 10, normalized fluorescence change, values below 0.05 threshold given as 0
[5] = concentration 100, normalized fluorescence change, values below 0.05 threshold given as 0
[6] = HEK293, read-out: Average response
[7] = HEK293, read-out: OR98a response (VUAA1-normalized response)
[8] = HEK293, read-out: OR98a Average response (VUAA1-normalized)
[9] = ligand concentration 1 (unit not given), threshold 0.05, below shown as 0
[10] = ligand concentration 10 (unit not given), threshold 0.05, below shown as 0
[11] = ligand concentration 100 (unit not given), threshold 0.05, below shown as 0

Compound	activation at 1 µM (Drosophila OR85b; [2]) [%]	activation at 10 µM (Drosophila OR85b; [2]) [%]	activation at 100 µM (Drosophila OR85b; [2]) [%]	Average response (Drosophila OR85b; cc. 1 µM)	Average response (Drosophila OR85b; cc. 10 µM)	Average response (Drosophila OR85b; cc. 100 µM)	DF norm AVERAGE OR85b (Drosophila OR85b; [3])	DF norm AVERAGE OR85b (Drosophila OR85b; [4])	DF norm AVERAGE OR85b (Drosophila OR85b; [5])	activation at 1 µM (Drosophila OR98a; [6]) [%]	activation at 10 µM (Drosophila OR98a; [6]) [%]	activation at 100 µM (Drosophila OR98a; [6]) [%]	activation at 1 µM (Drosophila OR98a; [7]) [%]	activation at 10 µM (Drosophila OR98a; [7]) [%]	activation at 100 µM (Drosophila OR98a; [7]) [%]	DF norm AVERAGE OR98a (Drosophila OR98a; [3])	DF norm AVERAGE OR98a (Drosophila OR98a; [4])	DF norm AVERAGE OR98a (Drosophila OR98a; [5])	activation at 1 µM (Drosophila OR98a; [8]) [%]	activation at 10 µM (Drosophila OR98a; [8]) [%]	further results
Cc1ccc(C)c(C)c1 [1,2,4-trimethylbenzene]	0	7.41	12	0.0436	0.0741	0.12	0	0.0741	0.1212	0	13	5	0	13	5	0	0.1254	0.05229			activation at 1 µM (Drosophila OR85b; [1]): 4%; activation at 10 µM (Drosophila OR85b; [1]): 7%; activation at 100 µM (Drosophila OR85b; [1]): 12%
CCCCCC(C)O (stereo not drawn) [2-heptanol]	0	0	32	0.0455	0.05	0.32	0	0	0.3169	3.25	3.67	16	0	0	16	0	0	0.1574	3	4	activation at 1 µM (Drosophila OR85b; [1]): 5%; activation at 10 µM (Drosophila OR85b; [1]): 5%; activation at 100 µM (Drosophila OR85b; [1]): 32%; activation at 100 µM (Drosophila OR98a; [8]): 16%
CC/C=C\CCOC(C)=O [Z-3-hexenyl acetate]																					OR85b response (VUAA1-normalized) at 1 μM (Drosophila OR85b; VOC concentration 1 μM): 0.15; OR85b response (VUAA1-normalized) at 10 μM (Drosophila OR85b; VOC concentration 10 μM): 0.00; OR85b response (VUAA1-normalized) at 100 μM (Drosophila OR85b; VOC concentration 100 μM): 0.00; OR98a response (VUAA1-normalized) at 1 μM (Drosophila OR98a; VOC concentration 1 μM): 0.00; OR98a response (VUAA1-normalized) at 10 μM (Drosophila OR98a; VOC concentration 10 μM): 0.00; OR98a response (VUAA1-normalized) at 100 μM (Drosophila OR98a; VOC concentration 100 μM): 0.10
CC(=O)c1ccccc1 [acetophenone]	0	0	0	0.00	0.00	0.00				4	0	0	0	0	0						DF norm AVERAGE OR85b (Drosophila OR85b; [9]): 0; DF norm AVERAGE OR85b (Drosophila OR85b; [10]): 0; DF norm AVERAGE OR85b (Drosophila OR85b; [11]): 0; DF norm AVERAGE OR98a (Drosophila OR98a; [9]): 0; DF norm AVERAGE OR98a (Drosophila OR98a; [10]): 0; DF norm AVERAGE OR98a (Drosophila OR98a; [11]): 0
CC(=O)OCC(C)C [isobutyl acetate]	0	0	0	0.044	0.00	0.03				1.85	0	6.56	0	0	6.56						DF norm AVERAGE OR85b (Drosophila OR85b; [9]): 0; DF norm AVERAGE OR85b (Drosophila OR85b; [10]): 0; DF norm AVERAGE OR85b (Drosophila OR85b; [11]): 0; DF norm AVERAGE OR98a (Drosophila OR98a; [9]): 0; DF norm AVERAGE OR98a (Drosophila OR98a; [10]): 0; DF norm AVERAGE OR98a (Drosophila OR98a; [11]): 0.0656
COC(=O)c1ccccc1 [methyl benzoate]				0.00	0.00	0.00				7.5	0	12							7	0	OR85b response (VUAA1-normalized) at 1 μM (Drosophila OR85b; VOC concentration 1 μM): 0.00; OR85b response (VUAA1-normalized) at 10 μM (Drosophila OR85b; VOC concentration 10 μM): 0.00; OR85b response (VUAA1-normalized) at 100 μM (Drosophila OR85b; VOC concentration 100 μM): 0.00; DF norm AVERAGE OR85b (Drosophila OR85b; [9]): 0; DF norm AVERAGE OR85b (Drosophila OR85b; [10]): 0; DF norm AVERAGE OR85b (Drosophila OR85b; [11]): 0; activation at 100 µM (Drosophila OR98a; [8]): 12%; OR98a response (VUAA1-normalized) at 1 μM (Drosophila OR98a; VOC concentration 1 μM): 0.075; OR98a response (VUAA1-normalized) at 10 μM (Drosophila OR98a; VOC concentration 10 μM): 0.00; OR98a response (VUAA1-normalized) at 100 μM (Drosophila OR98a; VOC concentration 100 μM): 0.12; DF norm AVERAGE OR98a (Drosophila OR98a; [9]): 0.07495; DF norm AVERAGE OR98a (Drosophila OR98a; [10]): 0; DF norm AVERAGE OR98a (Drosophila OR98a; [11]): 0.1166
C=C1CC[C@H]2O[C@]2(C)CC[C@@H]2[C@@H]1CC2(C)C [(-)-caryophyllene oxide]	0	0	0	0.00	0.00	0.036	0	0	0	0	4	0	0	0	0	0	0	0			
CCCCCC(O)CC (stereo not drawn) [3-octanol]	0	0	0	0.00	0.00	0.0171	0	0	0	1.89	3.68	13	0	0	13	0	0	0.1274	2	4	activation at 100 µM (Drosophila OR98a; [8]): 13%
CCCCCCCCC(CO)CCCCCC (stereo not drawn) [2-hexyl-1-decanol]	13	7	8	0.13	0.07	0.08	0.1336	0.06997	0.07977	0	14	2	0	14	0	0	0.1367	0			
(-)-alpha-cedrene				0.00	0.0466	0.0948	0	0	0.09481							0	0	0			OR85b response (VUAA1-normalized response) (Drosophila OR85b; VOC concentration 1 μM): 0.00; OR85b response (VUAA1-normalized response) (Drosophila OR85b; VOC concentration 10 μM): 0.00; OR85b response (VUAA1-normalized response) (Drosophila OR85b; VOC concentration 100 μM): 0.0948; OR98a response (VUAA1-normalized response) (Drosophila OR98a; VOC concentration 1 μM): 0.00; OR98a response (VUAA1-normalized response) (Drosophila OR98a; VOC concentration 10 μM): 0.00; OR98a response (VUAA1-normalized response) (Drosophila OR98a; VOC concentration 100 μM): 0.00; Average response (Drosophila OR98a; cc. 1 µM): 0.00; Average response (Drosophila OR98a; cc. 10 µM): 0.0421; Average response (Drosophila OR98a; cc. 100 µM): 0.0341
